Assay [1] concerns ubiquitin Ser65 phosphorylation. In words: Ubiquitin Ser65 phosphorylation in astrocytes with or without valinomycin. The format is cell-based. As for the experimental part: Briefly, astrocytes were treated with 50 μM of the nucleobase kinetin, nucleosides 9a and 9c or DMSO for 24 h and 5 h prior to lysis, the samples were treated with 50 nM valinomycin, a mitochondrial uncoupler.

A further assay has as its target T1, TcPINK1 (Tribolium castaneum, UniProt D6WMX4).
T1 construct: purchased MRC PPU Reagents and Services (University of Dundee, U.K.)
T1 sequence (D6WMX4 6-570): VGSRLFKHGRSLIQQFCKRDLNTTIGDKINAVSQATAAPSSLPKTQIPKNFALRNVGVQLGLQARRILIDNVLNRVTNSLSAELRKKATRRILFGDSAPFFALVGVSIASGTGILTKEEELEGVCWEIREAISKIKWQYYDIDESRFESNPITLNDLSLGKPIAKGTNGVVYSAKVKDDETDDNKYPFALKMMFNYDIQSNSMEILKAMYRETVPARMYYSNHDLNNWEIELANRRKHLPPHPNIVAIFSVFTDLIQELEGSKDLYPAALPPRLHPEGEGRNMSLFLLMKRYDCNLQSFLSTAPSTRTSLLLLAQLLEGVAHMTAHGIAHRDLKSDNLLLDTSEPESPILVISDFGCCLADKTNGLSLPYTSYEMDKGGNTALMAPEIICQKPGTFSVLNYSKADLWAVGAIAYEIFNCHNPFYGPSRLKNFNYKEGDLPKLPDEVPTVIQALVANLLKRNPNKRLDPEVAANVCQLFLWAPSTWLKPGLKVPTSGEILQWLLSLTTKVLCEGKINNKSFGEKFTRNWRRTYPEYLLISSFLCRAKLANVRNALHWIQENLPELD
Nature of the assay: PINK1 in vitro kinase assay with parkin or ubiquitin as substrates. The format is biochemical. The settings on record: increasing concentrations, max 100 μM; human parkin or ubiquitin as substrates. As for the experimental part: This assay was carried out by the MRC PPU Reagents and Services (University of Dundee, U.K.). The assay was conducted as follows: TcPINK1 (5-20mU diluted in 50 mM Tris pH 7.5, 0.1 mM EGTA, 1 mg/ml BSA, 0.1% mercaptoethanol) is assayed against GST PARK2 TV3 or Ubiquitin-His in a final volume of […] containing 50 mM Tris pH 7.5, 0.1 mM EDTA, 10 mM DTT, protein substrate (0.3 mg/ml of GST PARK2 TV3 or 1 mg/ml of Ubiquitin-His, 10 mM magnesium acetate and 0.1 mM [33P-γ-ATP](50-1000 cpm/pmole) in the presence of the relevant small molecule (serial dilution with the highest concentration being 100 μM) and incubated for 30 min at room temperature. Assays are stopped by addition of 5 μl of 0.5 M (3%) orthophosphoric acid and then harvested onto P81 Unifilter plates with a wash buffer of 50 mM orthophosphoric acid.
To examine this further, we ran in vitro kinase assays employing recombinant and constitutively active Tribolium castaneum PINK1 (TcPINK1) and either human parkin or ubiquitin as substrates in the presence of increasing concentrations (max 100 μM) of kinetin riboside, benzyladenosine 9c or its triphosphate derivative (FIG. 6). […]

Assay [2] has as its system HeLa cells transfected with YFP-parkin. In words: TMRM fluorescence (mitochondrial membrane potential). The format is cell-based. To be noted: pre-treatment 50 μM 24 h; data not shown. As for the experimental part: For assessing tetramethylrhodamine methyl ester perchlorate (TMRM) fluorescence, cell media was removed and replaced with cell media consisting of 5 nM TMRM (ThermoFisher) and 10 μg/ml Hoechst 33258 stain for 30 mins in the dark at 37° C. to allow incorporation of TMRM into mitochondria. Following PBS washes, FluoroBrite DMEM (Gibco) media was added to cells, followed by subsequent imaging using a Zeiss LSM800 microscope at 37° C. with 5% CO2.

The next assay concerns the target T2, PINK1 (Homo sapiens, UniProt Q9BXM7).
T2 construct: HeLa cells, which express PINK1 endogenously; endogenous in cells; host or cells: HeLa cells transiently transfected with parkin
To be noted: evidenced by parkin Ser65 phosphorylation; cited from earlier work.

In a further assay the test system is OPA1. In words: OPA1 cleavage immunoblot (mitochondrial membrane depolarization) in parkin-transfected HeLa cells. The format is cell-based. The settings on record: 50 μM 24 h, then 10 μM CCCP 3 h. As for the experimental part:
Both HeLa and parkin-overexpressed HeLa cells were maintained in DMEM high glucose (Gibco), 10% FBS (Sigma-Aldrich) at 37° C. with 5% CO2. For experiments, cells were counted and seeded into a range of culture plates, depending on the experiment, cell counting was done using the Cellometer Auto T4 with TrypanBlue (Gibco). […] Alternatively, HeLa cells were seeded in well plates and then transfected with […] of parkin cDNA using the PEI method once the plated cells reached 60% confluency. After 6 hours, the media was changed. Sub-culturing was done when the cells reached ˜90% confluency.
Cell culture with 70-80% confluency was lysed as follows: cells were washed with Phosphate Buffer Saline (PBS) (Sigma). 150 μl of lysis buffer was used on each well containing either: • 50 mM Tris-HCl pH 7.5, 1 mM EDTA, 1 mM EGTA, 0.27 M sucrose, 1 mM Na3VO4, 50 mM NaF, 5 mM Na pyrophosphate and fresh 1 mM benzamidine, 1% NP-40 and […]; or • 50 mM Tris-HCl pH 7.5, 1 mM EDTA, 1 mM EGTA, 10 mM Na β-glycerophosphate, 0.27 M sucrose, 1 mM Na3VO4, 50 mM NaF, 10 mM Na pyrophosphate with fresh 1 mM benzamidine, 1% Triton X-100, complete EDTA-free Protease Inhibitor, Phosphatase inhibitor cocktail 3 and 100 μM of 2-chloroacetamide.
The cells were scrapped and transferred to the microtube and eventually spun down at 12,000 rpm for 15 minutes at 4° C. Finally, the supernatant was transferred to the new microtubes and stored at −20° C. Protein concentration was measured using Bradford Assay. Serial concentrations 0.125; 0.25; 0.5 and 1 mg/ml of Bovine Serum Albumin (BSA) (Sigma Aldrich) were used as a standard. Samples were boiled at 90° C. for 5 minutes in SDS sample loading buffer.
To explore this, we first treated parkin-transfected HeLa cells for 24 h with 50 μM kinetin, kinetin riboside or kinetin riboside ProTide, a monophosphate prodrug of kinetin riboside.
(In general: A western blot detects proteins with antibodies after separation by electrophoresis.)

T2 sequence (Q9BXM7 78-581): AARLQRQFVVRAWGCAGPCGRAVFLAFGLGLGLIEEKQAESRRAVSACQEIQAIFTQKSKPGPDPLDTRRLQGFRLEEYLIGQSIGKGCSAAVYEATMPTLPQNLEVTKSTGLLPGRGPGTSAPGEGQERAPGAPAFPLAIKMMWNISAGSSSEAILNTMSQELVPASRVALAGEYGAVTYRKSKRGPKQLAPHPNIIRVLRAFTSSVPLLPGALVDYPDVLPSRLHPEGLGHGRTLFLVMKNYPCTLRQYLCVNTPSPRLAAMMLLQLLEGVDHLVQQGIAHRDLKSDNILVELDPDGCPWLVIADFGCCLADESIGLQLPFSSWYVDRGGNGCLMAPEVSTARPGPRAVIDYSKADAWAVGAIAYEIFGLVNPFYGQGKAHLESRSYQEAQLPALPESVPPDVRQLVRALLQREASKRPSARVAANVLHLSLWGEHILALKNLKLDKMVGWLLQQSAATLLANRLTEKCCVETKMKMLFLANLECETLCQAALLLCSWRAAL

In the case of `OC[C@H]1O[C@@H](n2cnc3c(NCc4ccccc4)ncnc32)[C@H](O)[C@@H]1O` [9c, (2R,3R,4S,5R)-2-(6-(benzylamino)-9H-purin-9-yl)-5-(hydroxymethyl)tetrahydrofuran-3,4-diol], the “ubiquitin Ser65 phosphorylation after pre-treatment followed by valinomycin, compared to valinomycin alone” value in assay [1] (50 μM 24 h, 50 nM valinomycin for 5 h) is recorded as “significant suppression of ubiquitin Ser65 phosphorylation”. Besides, in assay [1] (50 μM, 24 h), the “ubiquitin Ser65 phosphorylation, compound alone” value is “increased phosphorylation”. Moreover, the “effect on TcPINK1 kinase activity (covalent inhibition)” value on TcPINK1 is listed as “unlikely to be PINK1 covalent inhibitors”.

As for `OC[C@H]1O[C@@H](n2cnc3c(NCc4ccco4)ncnc32)[C@H](O)[C@@H]1O` [kinetin riboside, N^6-(2-furanylmethyl) adenosine], at TcPINK1, the “effect on TcPINK1 kinase activity (covalent inhibition)” value is given as “unlikely to be PINK1 covalent inhibitors”. Also, the “prevention of membrane potential collapse caused by niclosamide and CCCP” value in assay [2] is “did not prevent the membrane potential collapse”. For the same compound, the “CCCP-independent activation of PINK1 in cells, compared to kinetin” value on PINK1 was “more potent CCCP-independent activation of PINK1”. In the assay with OPA1, the “prevention of OPA1 cleavage by pre-treatment” value is on record as “did not prevent this effect”.
